Measurements reported in ChEMBL document CHEMBL5465560, “Selectivity Literature for EUbOPEN Chemogenomic Library” (2024).

What was measured:
[1] = molecular target: T1, Myotonin-protein kinase (Homo sapiens) (UniProt Q09013); assay: Selectivity interaction (Ambit KINOMEscan and KiNATiv profiling in Jurkat cells) EUB0000090b DMPK; format: cell-based; conditions: at 1 µM
T1 sequence (whole entry): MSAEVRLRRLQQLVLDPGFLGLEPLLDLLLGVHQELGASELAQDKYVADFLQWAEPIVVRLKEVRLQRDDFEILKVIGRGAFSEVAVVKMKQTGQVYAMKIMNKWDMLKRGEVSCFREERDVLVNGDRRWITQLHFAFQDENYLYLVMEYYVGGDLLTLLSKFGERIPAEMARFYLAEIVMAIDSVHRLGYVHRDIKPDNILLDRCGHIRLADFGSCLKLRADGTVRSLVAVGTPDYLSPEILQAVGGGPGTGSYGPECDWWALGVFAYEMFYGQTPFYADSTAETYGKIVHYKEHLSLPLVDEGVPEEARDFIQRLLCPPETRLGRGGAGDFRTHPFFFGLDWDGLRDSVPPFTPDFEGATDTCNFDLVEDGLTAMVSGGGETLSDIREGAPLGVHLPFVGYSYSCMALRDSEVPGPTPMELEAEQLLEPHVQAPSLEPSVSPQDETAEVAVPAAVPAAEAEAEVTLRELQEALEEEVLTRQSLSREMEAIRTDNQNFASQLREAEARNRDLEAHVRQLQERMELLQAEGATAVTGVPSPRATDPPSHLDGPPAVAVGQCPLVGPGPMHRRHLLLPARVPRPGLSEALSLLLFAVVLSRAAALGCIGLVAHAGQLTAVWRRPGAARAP

[2] = molecular target: T2, Serine/threonine-protein kinase BRSK2 (Homo sapiens) (UniProt Q8IWQ3); assay: Selectivity interaction (KinomeScan (DiscoverX)) EUB0000607a BRSK2; conditions: at 10 µM
T2 sequence (whole entry): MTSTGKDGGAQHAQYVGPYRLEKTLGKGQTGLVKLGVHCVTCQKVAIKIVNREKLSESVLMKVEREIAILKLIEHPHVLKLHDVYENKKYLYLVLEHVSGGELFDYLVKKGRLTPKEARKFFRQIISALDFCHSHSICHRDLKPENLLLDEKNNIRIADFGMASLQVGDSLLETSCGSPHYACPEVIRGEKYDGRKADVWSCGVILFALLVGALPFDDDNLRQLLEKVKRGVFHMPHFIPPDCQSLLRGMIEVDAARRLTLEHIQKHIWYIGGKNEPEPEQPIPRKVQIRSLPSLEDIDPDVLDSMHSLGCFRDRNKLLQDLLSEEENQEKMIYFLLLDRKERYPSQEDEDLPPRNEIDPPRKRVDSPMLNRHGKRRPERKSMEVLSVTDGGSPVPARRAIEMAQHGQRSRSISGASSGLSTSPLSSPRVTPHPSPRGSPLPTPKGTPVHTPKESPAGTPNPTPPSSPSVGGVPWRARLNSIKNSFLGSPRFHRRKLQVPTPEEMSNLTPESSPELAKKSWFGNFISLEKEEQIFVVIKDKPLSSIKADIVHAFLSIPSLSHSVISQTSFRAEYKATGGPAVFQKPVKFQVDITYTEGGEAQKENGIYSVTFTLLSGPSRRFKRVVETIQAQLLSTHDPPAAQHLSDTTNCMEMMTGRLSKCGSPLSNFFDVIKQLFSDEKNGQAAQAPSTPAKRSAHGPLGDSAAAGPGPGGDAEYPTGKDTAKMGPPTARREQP

[3] = molecular target: T3, Inhibitor of nuclear factor kappa-B kinase subunit alpha (Homo sapiens) (UniProt O15111); assay: Selectivity interaction (KinomeScan (DiscoverX)) EUB0001619a CHUK; conditions: at 1 µM
T3 sequence (whole entry): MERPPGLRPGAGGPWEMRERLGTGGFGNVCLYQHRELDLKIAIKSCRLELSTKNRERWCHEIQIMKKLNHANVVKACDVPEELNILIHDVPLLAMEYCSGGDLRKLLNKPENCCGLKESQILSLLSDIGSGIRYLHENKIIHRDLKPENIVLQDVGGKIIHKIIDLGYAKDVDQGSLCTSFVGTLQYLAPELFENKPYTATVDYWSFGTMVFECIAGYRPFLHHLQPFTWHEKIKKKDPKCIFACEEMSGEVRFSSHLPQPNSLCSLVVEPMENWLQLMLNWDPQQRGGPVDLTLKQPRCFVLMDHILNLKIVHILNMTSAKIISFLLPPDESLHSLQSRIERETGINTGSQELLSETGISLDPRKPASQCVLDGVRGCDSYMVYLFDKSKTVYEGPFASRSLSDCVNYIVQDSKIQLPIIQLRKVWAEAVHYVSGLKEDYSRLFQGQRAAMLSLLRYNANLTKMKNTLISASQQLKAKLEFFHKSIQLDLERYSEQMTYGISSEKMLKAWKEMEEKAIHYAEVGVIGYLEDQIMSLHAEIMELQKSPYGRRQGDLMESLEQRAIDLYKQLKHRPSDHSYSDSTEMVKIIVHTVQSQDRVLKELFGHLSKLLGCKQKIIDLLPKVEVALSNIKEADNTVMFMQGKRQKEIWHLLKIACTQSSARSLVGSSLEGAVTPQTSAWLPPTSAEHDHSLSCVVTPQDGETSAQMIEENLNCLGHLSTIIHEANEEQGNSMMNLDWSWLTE

[4] = molecular target: Cyclin-dependent kinase-like 1 (Homo sapiens) (UniProt Q00532); assay: Selectivity interaction (KinomeScan (DiscoverX)) EUB0000045b CDKL1
[5] = molecular target: T4, Testis-specific serine/threonine-protein kinase 1 (Homo sapiens) (UniProt Q9BXA7); assay: Selectivity interaction (Upstate Kinase Profiler service (Millipore)) EUB0000056c TSSK1A; conditions: at 1 µM
T4 sequence (whole entry): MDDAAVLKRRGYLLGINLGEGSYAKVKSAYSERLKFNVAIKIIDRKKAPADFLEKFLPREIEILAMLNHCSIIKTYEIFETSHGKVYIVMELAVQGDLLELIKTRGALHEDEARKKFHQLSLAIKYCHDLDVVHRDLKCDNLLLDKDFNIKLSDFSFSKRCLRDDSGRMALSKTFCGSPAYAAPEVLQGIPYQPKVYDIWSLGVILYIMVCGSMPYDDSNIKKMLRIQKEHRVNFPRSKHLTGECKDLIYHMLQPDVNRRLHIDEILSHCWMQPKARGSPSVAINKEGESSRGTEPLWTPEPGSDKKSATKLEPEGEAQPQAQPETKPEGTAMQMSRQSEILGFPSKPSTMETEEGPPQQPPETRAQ

SRSF protein kinase 1 = SRSF protein kinase 1 (Homo sapiens, UniProt Q96SB4); assay: Selectivity interaction (Kinase panel (Z-LYTE Assay)) EUB0001632a SRPK1; conditions: at 10 µM
[6] = molecular target: Ribosomal protein S6 kinase alpha-1 (Homo sapiens, UniProt Q15418); assay: Selectivity interaction (KinomeScan (DiscoverX)) EUB0000695a RPS6KA1; conditions: at 100 nM
[7] = molecular target: Serine/threonine-protein kinase Nek7 (Homo sapiens) (UniProt Q8TDX7); assay: Selectivity interaction (KinomeScan (DiscoverX)) EUB0000695a NEK7; conditions: at 100 nM
Chain of Serine/threonine-protein kinase Nek7 (Homo sapiens) (Q8TDX7 whole entry, looked up): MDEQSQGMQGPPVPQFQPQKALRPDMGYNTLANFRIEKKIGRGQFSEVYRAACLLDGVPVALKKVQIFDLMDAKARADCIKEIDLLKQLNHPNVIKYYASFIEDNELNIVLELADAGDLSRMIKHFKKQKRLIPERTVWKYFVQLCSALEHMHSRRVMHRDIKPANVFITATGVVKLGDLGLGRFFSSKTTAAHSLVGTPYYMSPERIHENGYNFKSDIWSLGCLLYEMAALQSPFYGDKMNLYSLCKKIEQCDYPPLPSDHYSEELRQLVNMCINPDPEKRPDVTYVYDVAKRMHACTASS

Chain of Cyclin-dependent kinase-like 1 (Homo sapiens) (Q00532 whole entry): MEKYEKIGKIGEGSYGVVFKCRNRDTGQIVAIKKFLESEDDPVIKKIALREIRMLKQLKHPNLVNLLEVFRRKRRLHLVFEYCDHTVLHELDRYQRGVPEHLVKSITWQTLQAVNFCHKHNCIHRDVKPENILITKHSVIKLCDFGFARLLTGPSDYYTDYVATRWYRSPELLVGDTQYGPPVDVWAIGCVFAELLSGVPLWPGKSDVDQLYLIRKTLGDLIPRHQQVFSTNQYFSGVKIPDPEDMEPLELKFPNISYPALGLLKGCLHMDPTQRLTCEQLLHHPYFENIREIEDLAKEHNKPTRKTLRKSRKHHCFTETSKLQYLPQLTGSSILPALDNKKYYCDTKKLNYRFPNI
Chain of SRSF protein kinase 1 (Q96SB4 whole entry): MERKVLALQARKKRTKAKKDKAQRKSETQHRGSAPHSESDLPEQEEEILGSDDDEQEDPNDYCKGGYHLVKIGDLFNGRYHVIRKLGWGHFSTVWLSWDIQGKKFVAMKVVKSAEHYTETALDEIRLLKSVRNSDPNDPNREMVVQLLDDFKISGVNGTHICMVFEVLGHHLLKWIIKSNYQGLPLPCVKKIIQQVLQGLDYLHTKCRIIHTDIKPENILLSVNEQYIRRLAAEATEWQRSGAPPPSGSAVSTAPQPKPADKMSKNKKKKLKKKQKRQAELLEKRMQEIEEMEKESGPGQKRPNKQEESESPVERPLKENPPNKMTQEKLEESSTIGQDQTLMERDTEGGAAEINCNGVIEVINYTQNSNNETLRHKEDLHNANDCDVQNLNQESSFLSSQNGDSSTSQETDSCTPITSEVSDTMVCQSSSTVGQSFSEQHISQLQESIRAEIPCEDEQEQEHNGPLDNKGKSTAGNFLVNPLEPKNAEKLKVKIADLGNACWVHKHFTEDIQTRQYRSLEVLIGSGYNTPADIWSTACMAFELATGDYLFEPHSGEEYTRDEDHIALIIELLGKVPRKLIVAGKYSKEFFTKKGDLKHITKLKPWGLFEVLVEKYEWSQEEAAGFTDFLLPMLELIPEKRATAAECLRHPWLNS
Chain of Ribosomal protein S6 kinase alpha-1 (Q15418 whole entry): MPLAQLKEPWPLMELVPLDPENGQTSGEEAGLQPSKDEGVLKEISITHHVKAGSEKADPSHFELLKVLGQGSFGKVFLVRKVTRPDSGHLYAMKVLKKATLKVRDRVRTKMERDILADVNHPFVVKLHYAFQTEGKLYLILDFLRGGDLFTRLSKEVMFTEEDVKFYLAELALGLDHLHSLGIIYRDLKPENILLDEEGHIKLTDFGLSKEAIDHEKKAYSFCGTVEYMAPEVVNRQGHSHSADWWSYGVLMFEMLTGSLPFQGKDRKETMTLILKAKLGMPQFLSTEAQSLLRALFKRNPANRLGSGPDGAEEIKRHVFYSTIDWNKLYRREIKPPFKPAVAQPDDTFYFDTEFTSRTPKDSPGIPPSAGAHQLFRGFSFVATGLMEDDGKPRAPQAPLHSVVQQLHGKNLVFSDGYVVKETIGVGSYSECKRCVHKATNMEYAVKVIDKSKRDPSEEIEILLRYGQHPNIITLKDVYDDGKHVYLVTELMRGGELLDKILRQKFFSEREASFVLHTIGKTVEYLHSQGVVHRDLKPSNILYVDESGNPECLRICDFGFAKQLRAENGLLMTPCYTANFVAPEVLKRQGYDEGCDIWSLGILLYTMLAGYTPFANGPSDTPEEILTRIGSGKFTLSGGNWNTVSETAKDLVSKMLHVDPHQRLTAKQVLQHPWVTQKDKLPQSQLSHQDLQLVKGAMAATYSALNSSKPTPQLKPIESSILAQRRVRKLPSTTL

Structure (SMILES): CN(C)C/C=C/C(=O)Nc1ccc(C(=O)N2CCCC(Nc3ncc(Cl)c(-c4c[nH]c5ccccc45)n3)C2)cc1 (centres undefined)
- % of control [1]: 91%

Structure (SMILES): CNC(=O)Nc1ccc(-c2nc(N3CC4CCC(C3)O4)c3cnn(C4CCC5(CC4)OCCO5)c3n2)cc1
- % of control [2]: 100%

Structure (SMILES): N#Cc1cccc(-c2c[nH]c3ncnc(N4CCOCC4)c23)c1
- % of control [3]: 71%

Structure (SMILES): C=CC(=O)Nc1cc(-n2c(=O)ccc3cnc4ccc(-c5ccc(NS(C)(=O)=O)cc5)cc4c32)ccc1C
- % of control ([4]; at 1 µM): 100%
- % of control ([4]; at 10 µM): 58%

Structure (SMILES): Cc1ccc(-c2ccc3c(ccc4sc5c(c43)NC[C@@H](C)NC5=O)n2)cn1
- % of inhibition [5]: 35%

Structure (SMILES): Cn1cc(-n2cnc3c(NCc4nc5cc(Cl)c(Cl)cc5[nH]4)nc(N4CCOCC4)nc32)cn1
- % of control (SRSF protein kinase 1): 0.97%

Structure (SMILES): Cc1cc(F)c(C(=O)Nc2cccc(-c3nncn3C(C)C)n2)cc1-n1cnc(C2CC2)c1
- % of control [6]: 88%
- % of control [7]: 100%
